For one molecule, MIC and MBC results are on record in patent US11731964B2, “Benzamide antibacterial agents” (Purdue Research Foundation, priority 2018, dated 2023).

Values after ≈ are worked out from the molar mass of the structure shown. Like-named read-outs stand apart in the source and are kept apart here. Bounds are passed on as bounds.

Experiment [1] concerns Escherichia coli JW5503-1 (ΔtolC). Put plainly: MIC against Gram-negative pathogens (efflux pump knockout). Format: cell-based. As for the experimental part:
(§1) Bacteria were cultured in cation-adjusted Mueller Hinton Broth (for strains in Tables 1 and 4) or Brain Heart Infusion broth (for Enterococcus faecium) or Tryptic Soy Broth (all other bacteria) in a 96-well plate at 37° C. for at least 20 hours. The MIC was classified as the lowest concentration where no visual growth of bacteria was observed. The minimum bactericidal concentration (MBC) was tested by spotting 4 μL from wells with no growth onto Tryptic Soy Agar (TSA) plates. Plates were incubated at 37° C. for at least 18 hours before recording the MBC.

For a further experiment, the system named is VRSA VRS12. Put plainly: MIC and MBC. Particulars: Staphylococcus aureus, VRSA VRS12. Format: cell-based, S. aureus. As to the method:
as §1

Another experiment concerns VISA NRS1. Put plainly: MIC and MBC. Format: cell-based, S. aureus. To be noted: Staphylococcus aureus, VISA NRS1. As to the method:
as §1

A further experiment has as its system MRSA NRS119. Put plainly: MIC and MBC. Format: cell-based, Staphylococcus aureus. Particulars: Staphylococcus aureus, MRSA NRS119. As to the method: as §1
The subject of experiment [2] is Klebsiella pneumoniae BAA-1706. Kind of experiment: MIC against Gram-negative pathogens. Format: cell-based. As for the experimental part:
as §1

A further experiment relates to Escherichia coli BW25113. Put plainly: MIC against Gram-negative pathogens. Format: cell-based. To be noted: Escherichia coli BW25113 (wild-type); read-out: MIC. As to the method: as §1
For experiment [3], the system named is Acinetobacter baumannii ATCC 19606. Put plainly: MIC against Gram-negative pathogens. Format: cell-based. As to the method:
as §1

In experiment [4] the test system is Pseudomonas aeruginosa ATCC 15442. Put plainly: MIC against Gram-negative pathogens. Format: cell-based. As for the experimental part:
as §1

One may read the MIC as the least concentration at which growth counts as inhibited. Usually MBC stands for the smallest concentration meeting the test's criterion for killing. As for `CC1CC(C)CN(S(=O)(=O)c2ccc(C(=O)Nc3nnc(-c4cccs4)o3)cc2)C1` (centres unmarked) [Compound F6], the MIC in experiment [1] was 2 µg/mL (≈ 4.48 µM); in the experiment on VRSA VRS12 (read-out: MIC) it was 2 µg/mL (≈ 4.48 µM); with VISA NRS1 (read-out: MIC), 2 µg/mL (≈ 4.48 µM); in the experiment with MRSA NRS119 (read-out: MIC), 2 µg/mL (≈ 4.48 µM); in experiment [2], “not active”; in experiment [2] (BAA1706, read-out: MIC), above 128 µg/mL. In addition, the MIC with Escherichia coli BW25113 is above 128 µg/mL; in experiment [3], “not active”; in experiment [3] (ATCC19606, read-out: MIC), 128 µg/mL (≈ 287 µM); in experiment [4], “not active”; in experiment [4] (ATCC15442, read-out: MIC), above 128 µg/mL. Also, the minimal bactericidal concentration (MBC) with VRSA VRS12 (read-out: MBC), in the experiment with VISA NRS1 (read-out: MBC) and in the experiment on MRSA NRS119 (read-out: MBC) was above 128 µg/mL each time.
